Here are results for nine compounds from ChEMBL document CHEMBL2311308, “From partial to full agonism: identification of a novel 2,4,5,6-tetrahydropyrrolo[3,4-c]pyrazole as a full agonist of the human GPR119 receptor” (Bioorg Med Chem Lett, 2013).

Some results are limits rather than exact numbers.

The target of data set [1] is T1, Glucose-dependent insulinotropic receptor (Homo sapiens) (UniProt Q8TDV5).
T1 sequence (whole entry): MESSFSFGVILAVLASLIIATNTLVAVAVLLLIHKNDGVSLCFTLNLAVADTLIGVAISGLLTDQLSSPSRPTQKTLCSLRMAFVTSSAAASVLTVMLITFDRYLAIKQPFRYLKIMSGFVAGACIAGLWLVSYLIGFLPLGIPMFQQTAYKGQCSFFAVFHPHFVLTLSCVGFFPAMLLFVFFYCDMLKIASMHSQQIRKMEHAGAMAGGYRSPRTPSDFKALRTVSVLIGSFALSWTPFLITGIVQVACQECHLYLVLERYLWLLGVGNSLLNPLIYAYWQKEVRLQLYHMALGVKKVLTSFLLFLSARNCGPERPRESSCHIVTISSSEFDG
Nature of the data set: Intrinsic activity at human recombinant GPR119 expressed in HEK293 cells co-expressing CRE beta-lactamase assessed as cAMP accumulation at 10 uM by HTRF assay relative to control. Format: functional, cell-based. Background: Cyclic AMP is a second messenger, typically raised through Gs and lowered through Gi signalling.

Another data set is described as follows: physchem. The following applies: buffer, pH 7.4.
A short description of data set [2]: Intrinsic clearance in human liver microsomes. As to conditions: read-out: CLH. The class given is ADME, Microsome. Background: Liver microsomes are vesicles of endoplasmic reticulum, rich in cytochrome P450 enzymes.
Data set [3] addresses T2, Glucose-dependent insulinotropic receptor (Homo sapiens, UniProt Q8TDV5).
T2 sequence (Q8TDV5 whole entry): T1 sequence (whole entry)
Nature of the data set: Agonist activity at human GPR119 expressed in HEK293 cells co-expressing CRE beta-lactamase assessed as cAMP accumulation by HTRF assay. Format: functional, cell-based.

For the compound `CC(C)OC(=O)N1CCC(n2cc3c(n2)CN(c2ccc(S(C)(=O)=O)cc2F)C3)CC1`, the Intrinsic activity in data set [1] was found to be 48%. In “physchem”, this compound registered a logD of 3.2. Also, the microsomal CLint in data set [2] came out at 36.1 µL/min/mg. In data set [3], the EC50 stood at 260 nM.

On to `CC(C)COC(=O)N1CCC(n2cc(CNc3ccc(S(C)(=O)=O)cc3F)cn2)CC1`, for which the Intrinsic activity in data set [1] was 24%. This compound also yielded a logD in “physchem” of 2.8. The EC50 in data set [3] turned out to be 240 nM.

As to `Cc1nc(S(C)(=O)=O)ccc1NCc1cnn(C2CCN(C(=O)OC(C)C)CC2)c1`, the logD in the data set “physchem” stood at 1.6. Besides, the EC50 in data set [3] was above 10000 nM.

On to `CCc1cnc(OC(=O)N2CCC(n3cc(CNc4ccc(S(C)(=O)=O)cc4F)cn3)CC2)nc1`, for which the Intrinsic activity in data set [1] was determined as 43%. In the data set “physchem”, this compound registered a log distribution coefficient (logD) of 3. The microsomal CLint in data set [2] stood at 148 µL/min/mg. Moreover, in data set [3], the concentration for a half-maximal effect (EC50) was determined as 47 nM.

As for `CCc1cnc(N2CCC([N+]3([O-])Cc4cn(-c5ccc(S(C)(=O)=O)cc5F)nc4C3)CC2)nc1` (stereo unspecified), the Intrinsic activity in data set [1] amounted to 107%. Besides, the logD in the data set “physchem” is 1.1. Further, in data set [2], the microsomal CLint came to 9.8 µL/min/mg. Moreover, the EC50 in data set [3] was determined as 498 nM.

In the case of `CC(C)OC(=O)N1CCC(n2cc(CNc3ccc(S(C)(=O)=O)cc3F)cn2)CC1`, the Intrinsic activity in data set [1] stood at 41%. The compound also registered a logD in the data set “physchem” of 2.3. Moreover, the microsomal CLint in data set [2] turned out to be 9.7 µL/min/mg. Further, the EC50 in data set [3] came to 181 nM.

Take `CCc1cnc(N2CCC(N3Cc4cn(-c5ccc(S(C)(=O)=O)cc5F)nc4C3)CC2)nc1`: the Intrinsic activity in data set [1] is 118%. The logD in “physchem” stood at 2.9. In addition, the microsomal CLint in data set [2] amounted to 23 µL/min/mg. For the same compound, the EC50 in data set [3] is 83 nM.

As to `CS(=O)(=O)c1ccc(NCc2cnn(C3CCN(C(=O)OC4CCC4)CC3)c2)c(F)c1`, in data set [1], the Intrinsic activity was determined as 42%. In “physchem”, this compound registered a logD of 2.5. In addition, the EC50 in data set [3] amounted to 462 nM.

For `CC(C)OC(=O)N1CCC(N2Cc3cn(-c4ccc(S(C)(=O)=O)cc4F)nc3C2)CC1`, the Intrinsic activity in data set [1] turned out to be 105%. For the same compound, the microsomal CLint in data set [2] turned out to be 10.5 µL/min/mg. For the same compound, the EC50 in data set [3] worked out at 864 nM.

Broadly, the logD is lipophilicity at a set pH, counting ionised and neutral species. A word on the EC50: it is the concentration giving half of the maximal effect.
